Experimental data published in the supplement of paper PMC10307832.

Assays:
Experiment in all cases: relative viability (nuclei count vs DMSO), 5 days (fraction); higher = more cells survive
MLN4924 + Decitabine = compound: NS(=O)(=O)OC[C@@H]1C[C@@H](n2ccc3c(N[C@H]4CCc5ccccc54)ncnc32)C[C@@H]1O [MLN4924] + Nc1ncn([C@H]2C[C@H](O)[C@@H](CO)O2)c(=O)n1 [Decitabine] (partner 2 µM)
Outline: (§1)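 Medians of duplicate plates are given as relative viability. That measure is the nuclei count in treated wells divided by the count in vehicle wells. Counts were taken on 4× images of lung cancer cell lines in 1536-well plates, 5 days after pin-tool dosing the day after seeding with one drug alone or a fixed anchor-drug dose plus five library-drug doses (not always all listed) in √10 steps.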

Carboplatin + Trametinib = compound: C1CC(C1)(C(=O)O)C(=O)O.[NH2-].[NH2-].[Pt+2] [Carboplatin] + CC(=O)Nc1cccc(-n2c(=O)n(C3CC3)c(=O)c3c(Nc4ccc(I)cc4F)n(C)c(=O)c(C)c32)c1 [Trametinib] (partner 0.02 µM)
Outline: as §1

Carboplatin + Pemetrexed = compound: C1CC(C1)(C(=O)O)C(=O)O.[NH2-].[NH2-].[Pt+2] [Carboplatin] + Nc1nc2[nH]cc(CCc3ccc(C(=O)N[C@@H](CCC(=O)O)C(=O)O)cc3)c2c(=O)[nH]1 [Pemetrexed] (partner 0.2 µM)
Outline: as §1

Carboplatin + Alpelisib = compound: C1CC(C1)(C(=O)O)C(=O)O.[NH2-].[NH2-].[Pt+2] [Carboplatin] + Cc1nc(NC(=O)N2CCC[C@H]2C(N)=O)sc1-c1ccnc(C(C)(C)C(F)(F)F)c1 [Alpelisib] (partner 2 µM)
Outline: as §1

UMC-11
relative viability (MLN4924 + Decitabine; first compound 0.04 µM): 0.559 | relative viability (MLN4924 + Decitabine; first compound 0.1265 µM): 0.511 | relative viability (MLN4924 + Decitabine; first compound 0.4 µM): 0.402 | relative viability (MLN4924 + Decitabine; first compound 1.265 µM): 0.309 | relative viability (MLN4924 + Decitabine; first compound 4 µM): 0.277 | relative viability (Carboplatin + Trametinib; first compound 0.08 µM): 0.632 | relative viability (Carboplatin + Trametinib; first compound 0.253 µM): 0.706 | relative viability (Carboplatin + Trametinib; first compound 0.8 µM): 0.738 | relative viability (Carboplatin + Trametinib; first compound 2.53 µM): 0.929 | relative viability (Carboplatin + Trametinib; first compound 8 µM): 0.532 | relative viability (Carboplatin + Pemetrexed; first compound 0.08 µM): 0.853 | relative viability (Carboplatin + Pemetrexed; first compound 0.253 µM): 0.738 | relative viability (Carboplatin + Pemetrexed; first compound 0.8 µM): 0.802 | relative viability (Carboplatin + Pemetrexed; first compound 2.53 µM): 0.689 | relative viability (Carboplatin + Pemetrexed; first compound 8 µM): 0.62 | relative viability (Carboplatin + Alpelisib; first compound 0.08 µM): 1 | relative viability (Carboplatin + Alpelisib; first compound 0.253 µM): 0.96 | relative viability (Carboplatin + Alpelisib; first compound 0.8 µM): 0.827 | relative viability (Carboplatin + Alpelisib; first compound 2.53 µM): 0.955 | relative viability (Carboplatin + Alpelisib; first compound 8 µM): 0.588
